Data from US20250066360A1, “PYRIDINE-CONTAINING POLYCYCLIC DERIVATIVE, AND PREPARATION METHOD THEREFOR AND USE THEREOF” (SHANGHAI HANSOH BIOMEDICAL CO., LTD., priority 2022, published 2025).

What was measured:
[1] = system: TNF-α in U937 cells; experiment: Inhibition of the expression level of TNF-α in LPS-stimulated U937 cells (ELISA); assay type: cell-based; settings: Homo sapiens, U-937; PMA-differentiated U937, 10 ng/ml LPS 4 hours; read-out: U937 cell activity test TNF-α IC50
Protocol: U937 cells were treated with 20 ng/ml PMA for differentiation overnight, and after replacement with a fresh culture medium, the U937 cells were rested overnight. After differentiation, the U937 cells were digested and counted, and 50,000 cells per well were seeded in a 96-well plate until the cells adhered to the wall. A compound concentration gradient was prepared, the cells were pretreated with the compound for 1 hour (the highest final concentration of the compound was 1 μM, diluted in 3-fold concentration gradient), and 10 ng/ml LPS (Lipopolysaccharides from Escherichia coli O111:B4) was added for stimulation for 4 hours. Thereafter, the culture supernatant was collected by centrifugation and used for subsequent ELISA to detect the concentration of TNF-α in the supernatant. The concentration of TNF-α was detected according to the standard steps provided by the ELISA kit manufacturer.
A standard curve was plotted by a linear regression method from a TNF-α standard, and the concentration of TNF-α in a sample was derived by conversion according to the standard curve.
(§1) Calculation of inhibition rate: Inhibition rate %=[(mean value of TNF-α concentration in positive control well−mean value of TNF-α concentration in sample well)/(mean value of TNF-α concentration in positive control well−mean value of TNF-α concentration in negative control well)]×100%, wherein the positive control well was a well without a compound (DMSO-treated well), and the negative control well was a culture medium well.
Dose response curve fitting: Log(inhibitor) vs. response−Variable slope (four parameters) in GraphPad Prism 6 was used for fitting equation analysis of the compound concentration and the corresponding inhibition rate, and the curve was fitted to obtain the IC50 value of the compound. The fitting calculation equation was Y=Bottom+(Top−Bottom)/(1+10^((Log IC50−X)*HillSlope)).

[2] = system: p-Hsp27 in U937 cells; experiment: Inhibition of p-Hsp27 in LPS-stimulated U937 cells (ELISA); assay type: cell-based; settings: Homo sapiens, U-937; PMA-differentiated U937, 10 ng/ml LPS 0.5 hours; read-out: U937 cell activity test p-HSP27 IC50
Protocol: U937 cells were treated with 20 ng/ml PMA for differentiation overnight, and after replacement with a fresh culture medium, the U937 cells were rested overnight. After differentiation, the U937 cell were digested and counted, and 25,000 cells per well were seeded in a 96-well plate until the cells adhered to the wall. A compound concentration gradient was prepared, the cells were pretreated with the compound for 1 hour (the highest final concentration of the compound was 1 μM, diluted in 3-fold concentration gradient), and 10 ng/ml LPS (Lipopolysaccharides from Escherichia coli O111:B4) was added for stimulation for 0.5 hours. After the cells were washed with PBS, the cells were lysed with a lysis solution. p-Hsp27 in the cell lysate was detected by using Phospho-HSP27 (S78/S82) DuoSet IC ELISA kit. For specific steps, reference could be made to the standard steps provided by the kit manufacturer.
as §1, with “of p-Hsp27” for “of”, “of p-Hsp27” for “of TNF-α concentration”, “a well without LPS stimulation.” for “a culture medium well.”
Dose response curve fitting: Log(inhibitor) vs. response−Variable slope (four parameters) in GraphPad Prism 6 was used for fitting equation analysis of the compound concentration and the corresponding inhibition rate, and the curve was fitted to obtain the IC50 value of the compound.
(§2) The fitting calculation equation was Y=Bottom+(Top−Bottom)/(1+10^((Log IC50−X)*HillSlope)).

[3] = molecular target: T1, p38α/MK2 (Homo sapiens, UniProt P49137+Q16539); experiment: Inhibition of p38α/MK2 enzyme activity (TR-FRET, ULight-CREBtide); assay type: biochemical; settings: for IC50: 0.06 nM p38a, 1.2 nM MK2, 25 μM ATP, read-out: p38/MK2 IC50; for Selectivity ratio (p38 IC50 / p38/MK2 IC50): selectivity ratio p38 IC50 over p38/MK2 IC50
T1 construct: purchased R & D systems (p38 alpha); Thermo (MK2) 5477-KS-010; PV3316
T1 sequence (Q16539 whole entry): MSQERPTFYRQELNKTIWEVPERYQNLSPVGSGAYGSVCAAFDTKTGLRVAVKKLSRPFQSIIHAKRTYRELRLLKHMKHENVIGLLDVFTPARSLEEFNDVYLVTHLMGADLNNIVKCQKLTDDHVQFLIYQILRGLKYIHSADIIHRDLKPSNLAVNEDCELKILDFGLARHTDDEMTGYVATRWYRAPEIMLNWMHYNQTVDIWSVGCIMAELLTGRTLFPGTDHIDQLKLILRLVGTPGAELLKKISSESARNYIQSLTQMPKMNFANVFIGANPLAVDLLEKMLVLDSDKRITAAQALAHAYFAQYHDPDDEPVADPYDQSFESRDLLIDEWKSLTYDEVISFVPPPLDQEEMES
T1 sequence (P49137 whole entry): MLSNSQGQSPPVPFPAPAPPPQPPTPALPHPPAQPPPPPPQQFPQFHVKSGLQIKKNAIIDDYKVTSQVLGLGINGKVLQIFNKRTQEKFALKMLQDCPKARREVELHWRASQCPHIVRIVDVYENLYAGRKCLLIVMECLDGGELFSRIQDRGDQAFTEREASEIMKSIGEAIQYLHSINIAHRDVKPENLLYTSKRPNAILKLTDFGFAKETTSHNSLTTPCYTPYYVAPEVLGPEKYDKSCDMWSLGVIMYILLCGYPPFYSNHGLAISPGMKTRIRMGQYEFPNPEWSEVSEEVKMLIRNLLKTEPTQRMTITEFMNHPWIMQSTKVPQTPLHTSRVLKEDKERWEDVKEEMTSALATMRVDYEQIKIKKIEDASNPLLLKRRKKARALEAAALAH
Protocol: (§3) 50 nM ULight-CREBtide and 25 μM ATP (ATP Solution) were added, and the mixture was reacted at room temperature for 1.5 hours. An equal volume of a detection and termination mixed solution (1×LANCE detection buffer containing 20 mM EDTA and 2 nM Europium-anti-phospho-CREB) was added, the mixture was mixed until uniform and centrifuged, a plate sealing film was attached, and a reaction was performed at room temperature for 1 hour. TR-FRET program of the EnVision instrument was used to read the plate, and the fluorescence value of each well was detected at 665 nm/615 nm.
(§4) Calculation was performed on the raw data (665 nm/615 nm reading ratio) according to the following formula to obtain the inhibition rate. Inhibition rate %=[(mean value in positive control well−value in sample well)/(mean value in positive control well−mean value in negative control well)]×100, wherein the positive control well was a reaction well without a compound […], and the negative control well was a reaction wells without an enzyme.
(§5) Log(inhibitor) vs. response−Variable slope (four parameters) in GraphPad Prism 6 was used for fitting equation analysis of the compound concentration and the corresponding inhibition rate, and the curve was fitted to obtain the IC50 value of the compound.
as §2

[4] = molecular target: T2, p38a (Active p38 alpha Protein) (Homo sapiens, UniProt Q16539); experiment: Inhibition of p38 enzyme activity (TR-FRET, ULight-MBP); assay type: biochemical; settings: 3 nM p38a, 50 μM ATP
T2 construct: purchased R & D systems 5477-KS-010
T2 sequence (Q16539 whole entry): as the sequence (Q16539 whole entry) above
Protocol: as §3, with “Experimental method for determining the p38 enzyme activity: 3 nM p38a (Active p38 alpha Protein) and compounds diluted in a certain concentration gradient were incubated in 1× enzyme reaction buffer (50 mM HEPES pH 7.5, 1 mM EGTA, 10 mM MgCl2, 2 mM DTT, 0.01% Tween-20) for 1 hour. 50” for “50”, “ULight-MBP” for “ULight-CREBtide”, “50” for “25”, “(ATP 10 mM” for “(ATP”, “Europium-anti-P-MBP)” for “Europium-anti-phospho-CREB)”
as §4, §5, §2

Structure (SMILES)	IC50 [1] [nM]	IC50 [2] [nM]	IC50 [3] [nM]	Selectivity ratio (p38 IC50 / p38/MK2 IC50) [3]	IC50 [4] [nM]
[2H]C([2H])(Oc1cc2n(c(=O)c1Cl)-c1cc(-c3ccnc(C(C)(C)O)n3)ncc1CCCC2)c1ncc(F)cc1F [Example 1-1, (S)-11-Chloro-10-((3,5-difluoropyridin-2-yl)methoxy-d2)-2-(2-(2-hydroxypropan-2-yl)pyrimidin-4-yl)-5,6,7,8-tetrahydro-12H-dipyrido[1,2-a:3′,4′-g]azol-12-one]	1.2	0.17	0.71	109	77.4
[2H]C([2H])(Oc1cc2n(c(=O)c1Cl)-c1cc(-n3ccc(C(C)(C)O)n3)ncc1CCCC2)c1ncc(F)cc1F [Example 2-1, (S)-11-chloro-10-((3,5-difluoropyridin-2-yl)methoxy-d2)-2-(3-(2-hydroxypropan-2-yl)-1H-pyrazol-1-yl)-5,6,7,8-tetrahydro-12H-dipyrido[1,2-a:3′,4′-g]azol-12-one]	0.33	0.28	0.42	–	–
[2H]C([2H])(Oc1cc2n(c(=O)c1Cl)-c1cc(-n3cc(F)c(C(C)(C)NC(C)=O)n3)ncc1CCCC2)c1ncc(F)cc1F [Example 3-1, (S)—N-(2-(1-(11-chloro-10-((3,5-difluoropyridin-2-yl)methoxy-d2)-12-carbonyl-6,7,8,12-tetrahydro-5H-dipyrido[1,2-a:3′,4′-g]azocin-2-yl)-4-fluoro-1H-pyrazol-3-yl)propan-2-yl)acetamide]	0.18	0.15	0.18	–	–
[2H]C([2H])(Oc1cc2n(c(=O)c1Cl)-c1cc(-c3ccnc(C(C)(C)NC(C)=O)n3)ncc1CCCC2)c1ncc(F)cc1F [Example 4-1, (S)—N-(2-(4-(11-chloro-10-((3,5-difluoropyridin-2-yl)methoxy-d2)-12-carbonyl-6,7,8,12-tetrahydro-5H-dipyrido[1,2-a:3′,4′-g]azocin-2-yl)pyrimidin-2-yl)propan-2-yl)acetamide]	1.2	0.35	–	–	–
[2H]C([2H])(Oc1cc(C)n(-c2cc(-n3cccc(C(C)(C)NC(C)=O)c3=O)ncc2C)c(=O)c1Cl)c1ncc(F)cc1F [Example 5-1, (S)—N-(2-(3″-chloro-4″-((3,5-difluoropyridin-2-yl)methoxy-d2)-5′,6″-dimethyl-2,2″-dicarbonyl-2H,2″H-[1,2′:4′,1″-terpyridin]-3-yl)propan-2-yl)acetamide]	–	–	0.79	666	526
[2H]C([2H])(Oc1cc2n(c(=O)c1Cl)-c1c(cnc(-n3ccc(C(C)(C)O)n3)c1F)CCCC2)c1ncc(F)cc1F [Example 8-1, (R)-11-chloro-10-((3,5-difluoropyridin-2-yl)methoxy-d2)-1-fluoro-2-(3-(2-hydroxypropan-2-yl)-1H-pyrazol-1-yl)-5,6,7,8-tetrahydro-12H-dipyrido[1,2-a:3′,4′-g]azocin-12-one]	0.19	0.22	0.25	–	–
[2H]C([2H])(Oc1cc(C)n(-c2cc(-n3cccc(C(C)(C)O)c3=O)ncc2Cl)c(=O)c1Cl)c1ncc(F)cc1F [Example 10-1, (S)-3″,5′-dichloro-4″-((3,5-difluoropyridin-2-yl)methoxy-d2)-3-(2-hydroxypropan-2-yl)-6″-methyl-2H,2″H-[1,2′:4′,1″-terpyridine]-2,2″-dione]	0.1	0.13	0.13	–	–
[2H]C([2H])(Oc1cc(C)n(-c2cc(-n3cccc(C(C)(C)O)c3=O)ncc2C)c(=O)c1Cl)c1ncc(F)cc1F [Example 11-1, (S)-3″-chloro-4″-((3,5-difluoropyridin-2-yl)methoxy-d2)-3-(2-hydroxypropan-2-yl)-5′,6″-dimethyl-2H,2″H-[1,2′:4′,1″-terpyridine]-2,2″-dione]	0.21	0.1	0.28	346	96.9
[2H]C([2H])(Oc1cc(C)n(-c2cc(-n3cccc(C(C)(C)NC(C)=O)c3=O)ncc2C)c(=O)c1Cl)c1ccc(F)cc1F [Example 13-1, (S)—N-(2-(3″-chloro-4″-((2,4-difluorophenyl)methoxy-d2)-5′,6″-dimethyl-2,2″-dicarbonyl-2H,2″H-[1,2′:4′,1″-terpyridin]-3-yl)propan-2-yl)acetamide]	0.51	0.56	0.12	138	16.5
[2H]C([2H])(Oc1cc2n(c(=O)c1Cl)-c1cc(-c3ccnc(C(C)(C)O)n3)ncc1/C=C\CC2)c1ncc(F)cc1F [Example 16-1, (S,Z)-11-chloro-10-((3,5-difluoropyridin-2-yl)methoxy-d2)-2-(2-(2-hydroxypropan-2-yl)pyrimidin-4-yl)-7,8-dihydro-12H-dipyrido[1,2-a:3′,4′-g]azocin-12-one]	0.85	0.28	0.49	–	–
[2H]C([2H])(Oc1cc2n(c(=O)c1Cl)-c1cc(-n3ccc(C(C)(C)O)n3)ncc1/C=C\CC2)c1ncc(F)cc1F [Example 17-1, (S,Z)-11-chloro-10-((3,5-difluoropyridin-2-yl)methoxy-d2)-2-(3-(2-hydroxypropan-2-yl)-1H-pyrazol-1-yl)-7,8-dihydro-12H-dipyrido[1,2-a:3′,4′-g]azocin-12-one]	–	–	0.27	–	–
[2H]C([2H])(Oc1cc2n(c(=O)c1Cl)-c1cc(-n3cc(F)c(C(C)(C)NC(C)=O)n3)ncc1/C=C\CC2)c1ncc(F)cc1F [Example 18-1, (S,Z)—N-(2-(1-(11-chloro-10-((3,5-difluoropyridin-2-yl)methoxy-d2)-12-carbonyl-8,12-dihydro-7H-dipyrido[1,2-a:3′,4′-g]azocin-2-yl)-4-fluoro-1H-pyrazol-3-yl)propan-2-yl)acetamide]	–	–	0.12	–	–
[2H]C([2H])(Oc1cc2n(c(=O)c1Cl)-c1cc(-n3cccc(C(C)(C)O)c3=O)ncc1/C=C\CC2)c1ncc(F)cc1F [Example 19-1, (S,Z)-11-chloro-10-((3,5-difluoropyridin-2-yl)methoxy-d2)-2-(3-(2-hydroxypropan-2-yl)-2-carbonylpyridin-1(2H)-yl)-7,8-dihydro-12H-dipyrido[1,2-a:3′,4′-g]azocin-12-one]	–	–	0.12	–	–
